The conditions of data set [1]: cited from earlier work.
In data set [2] the target is HEK293 cells expressing 17β-HSD13 (Homo sapiens (Human), UniProt Q7Z5P4). Put plainly: 17β-HSD13 cell-based assay (β-estradiol conversion, LC-MS/MS). The procedure:
HEK293 cells expressing 17β-HSD13 either stably or transiently were incubated with compounds for 60 min at 37° C. in a humidified incubator. After this first incubation step, β-estradiol was added to each well of the microtiter plate and incubated for 3 h at 37° C. in the humidified incubator. After treatment with β-Estradiol, 50 μL of supernatant was transferred to a 96-V plate containing 100 μL acetonitrile and centrifuged at 3900 rpm for 45 min. Finally, 50 μL of supernatant were taken for LC-MS/MS analysis. The chromatography part was run on a Xbridge 30 mm×2.1 mm column (Waters), at 40 degrees Celsius and a flow rate of 0.8 mL/min for 5 min, while the MS was done on a Q Exactive Orbitrap (Fisher Scientific) in Target SIM mode and negative polarity with a spray voltage of 3.5 kV. EC50 values were determined with GraphPad Prism®, where log-transformed concentration values and the inhibition data were fitted to a four-parameter logistic equation. Y=Bottom+(Top−Bottom)/(1+10^((Log EC50−X)*Hill Slope)). The original, % control, or % inhibition data are represented by Y along with their minimal (Bottom) and maximal (Top) values. The inhibitor concentration is represented by X, EC50 is the concentration at 50% maximal value, and Hill Slope is the slope factor.

For data set [3], the target named is recombinant 17β-HSD13 protein (Homo sapiens (Human), UniProt Q7Z5P4). Put plainly: 17β-HSD13 biochemical assay (NAD+/NADH Glo chemiluminescence). The note with it: 17β-HSD13 50 nM, NAD+ 10 mM, β-estradiol 20 μM, 2 hours room temperature. Put shortly:
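Compounds preincubated 1 h at room temperature with 50 nM enzyme and 10 mM NAD+ (final) in 200 mM Tris pH 7.5, 0.01% Triton X-100, 0.02% BSA. Reaction started with 20 μM β-estradiol and run 2 hours at room temperature; NADH formation detected by NAD+/NADH-Glo chemiluminescence. IC50 from four-parameter logistic fit.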

Data set [4] is described as follows: Recovery of glucuronide Compound I-51 spiked into mouse liver tissue homogenate (30% ACN in water with 2% FA). In kind it is in vitro ADME. The note with it: parent Compound I-16 measured in I-51-spiked sample. From the text:
Compound I-51, a glucuronide of compound I-16, was used to develop methodology to ensure the glucuronide metabolite of the phenol could be stabilized in liver tissue to glucuronidase and other enzymatic cleavage in order to determine accurate levels of parent:glucuronide in the liver tissue. A known amount of Compound I-51 was spiked into a gram of mouse liver tissue where 2% formic acid (FA) was used with 30% acetonitrile (ACN) in water to stop all enzymatic glucuronidase activity.
Comparison of Treatment on ‘30% ACN in Water with 2% FA’ Homogenate Buffer for Compound I-51:
1). Prepared the homogenate buffer ‘30% ACN in water with 2% FA’ (including […] Compound 1-51), then homogenized with the liver tissue together. Due to the ratio of 1:9 (1 g tissue with 9 mL buffer), the final concentration was 900 ng/mL.
2). An aliquot of 20 μL sample were taken for analysis. Compound I-51 was Added after Homogenate:
1). The liver tissue was homogenized with the buffer ‘30% ACN in water with 2% FA’, then 2 μL 18 µg/mL Compound I-51 was spiked in 38 μL liver homogenate, the final concentration was 900 ng/mL. 2). An aliquot of 20 μL sample were taken for analysis. […]
The amount of parent was measured under these conditions Compound I-16 after generating a standard curve for Compound I-16.

The structures appear in SMILES notation. Where two headings read alike, the source gives them in different places.

HEK293 cells expressing 17β-HSD13, sequence (Q7Z5P4 20-300): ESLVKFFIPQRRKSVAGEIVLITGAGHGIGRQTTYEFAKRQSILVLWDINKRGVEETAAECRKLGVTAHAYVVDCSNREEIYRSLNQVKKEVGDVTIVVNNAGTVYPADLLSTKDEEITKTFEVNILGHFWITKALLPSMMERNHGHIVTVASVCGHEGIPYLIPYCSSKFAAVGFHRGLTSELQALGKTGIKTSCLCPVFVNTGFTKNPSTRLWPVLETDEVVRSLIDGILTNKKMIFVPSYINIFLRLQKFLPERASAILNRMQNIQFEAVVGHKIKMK
recombinant 17β-HSD13 protein, sequence (Q7Z5P4 20-300): as above

On to `CCn1c(=O)c(C)cn(Cc2ccc(-c3ccc(F)c(O)c3F)s2)c1=O` [BI-3231], for which the “glucuronidation / in vivo clearance” value in data set [1] is on record as “prone to rapid glucuronidation on the phenol moiety leading to fast in vivo clearance”.

Usually EC50 stands for the concentration giving half of the maximal effect. Usually IC50 stands for the midpoint of a concentration-inhibition curve. As for `O=C1N(CC(F)(F)F)C(=O)C2(CC2)N1Cc1nnc(-c2ccc(F)c(O)c2Cl)s1` [Compound I-16, 4-((5-(2-chloro-4-fluoro-3-hydroxyphenyl)-1,3,4-thiadiazol-2-yl)methyl)-6-(2,2,2-trifluoroethyl)-4,6-diazaspiro[2.4]heptane-5,7-dione], the EC50 in data set [2] (HEK293 cells stably expressing 17β-HSD13 (footnote b), read-out: EC50, nM Stable) was 37.1 nM; in data set [2] (HEK293 cells transiently expressing 17β-HSD13 (footnote a), read-out: EC50, nM Transient) it was 107 nM. Besides, the IC50 in data set [3] was found to be 12.9 ± 2.43 nM. The “Calculated Concentration (ng/mL) of parent” value in data set [4] (after homogenate) is on record as 5.237 ng/mL; in data set [4] (before homogenate), 5.618 ng/mL.

The record behind these values is patent US20250026745A1 (Bluejay Therapeutics, Inc., priority 2023, published 2025).
